The values below are quoted from earlier work in patent publication US11708377B2, “Analogues and derivatives of cephalotaxine and methods for making and using the compounds” (Oregon State University, priority 2019, dated 2023).

For one data set, the system named is leukemia cells. Particulars: background statement, no figure given.
The conditions of data set [1]: background statement; lacks the ester sidechain of HHT.

Consider `COC(=O)C[C@](O)(CCCC(C)(C)O)C(=O)O[C@@H]1C(OC)=C[C@]23CCCN2CCc2cc4c(cc2[C@H]13)OCO4` [HHT, (−)-Homoharringtonine], for which the “cytotoxicity against leukemia cells” value in the data set with leukemia cells is on record as “nanomolar cytotoxicity”.

As to `COC1=C[C@]23CCCN2CCc2cc4c(cc2[C@@H]3[C@@H]1O)OCO4` [Cephalotaxine, (−)-Cephalotaxine], the biological activity entry in data set [1] was “biologically inactive”.
